Data as given in PubChem BioAssay AID1626 (SRMLSC, 2009).
pIC50: −log10 of the molar value.

Tested on: M. tuberculosis H37Rv growth inhibition
Experiment: M. tuberculosis H37Rv growth inhibitors, H37Rv strain (AID 1626)
Conditions: for IC90: measured here: IC90 against H37Rv; for CC50: measured here: Vero cell cytotoxicity

| SMILES | pIC50 | IC90 | CC50 |
| --- | --- | --- | --- |
| OC(CNCCC1C=Nc2ccccc21)Cn1c2ccc(Cl)cc2c2cc(Cl)ccc21 (centres undefined) | 5.74 | 2.03 µM | 5.96 µM |
| Cc1ccc(Nc2nc(N3CCN(C)CC3)nc(N)c2[N+](=O)[O-])cc1C | 5.01 | 14.5 µM |  |
| COc1cc(NS(=O)(=O)c2ccc(N)cc2)ncn1 | 5.22 | 12.2 µM |  |
| Oc1ccccc1-c1nc(/C=C/c2ccccc2)nn1-c1ccccc1 | 4.79 | > 100 µM |  |
| CCCCn1c(=O)c(C(=O)Nc2nnc(C(C)C)s2)c(O)c2ccccc21 | 6.12 | 0.841 µM | > 40 µM |
| O=C(CCSc1ccc(Cl)cc1)c1cccs1 |  | > 100 µM |  |
| CC(C)(C)c1cc(NCCCn2ccnc2)n2ncc(-c3ccccc3)c2n1 | 5.75 | 2.89 µM | 15.9 µM |
| COc1ccc(C[C@H]2CN3C(=NC[C@H]3Cc3ccccc3)N2CCNC(=O)CCC2CCCCC2)cc1 | 4.96 | 12.3 µM | 29 µM |
| CCOc1ccc2nc(NC(=O)CSC3=NCCS3)sc2c1 |  | > 100 µM |  |
| O=C(COc1ccc(Cl)cc1Cl)N1CCN(C/C=C/c2ccccc2)CC1 | 4.77 | 21.6 µM | > 40 µM |
| COc1cccc(CNc2ccccc2O)c1OCc1ccccc1F |  | > 100 µM | > 40 µM |
| O=C(CSC1=NCCS1)Nc1ccc2ccccc2c1 |  | > 100 µM |  |
| O=C1Nc2ccccc2/C1=N\N=C\C1=C(N2CCOCC2)C(=C\c2ccccc2)/CC1 | 5.89 | 1.86 µM | > 40 µM |
| CCOc1ccc(-c2nnc(SCC(=O)Nc3cc(C)on3)o2)cc1 | 5.79 | 1.95 µM | > 40 µM |
| Cn1cc(CN2CCN(c3ccc(Cl)cn3)CC2)c(-c2ccccc2F)n1 |  | > 100 µM |  |
| O=C(Nc1cccc(NC(=O)c2cccs2)c1)c1ccc([N+](=O)[O-])o1 | 5.10 | 14.3 µM | 13.8 µM |
| CCn1c([N+](=O)[O-])nc2c1c(=O)[nH]c(=O)n2C | 6.08 | 1.64 µM | 11.6 µM |
| CCOC(=O)c1ccc(NC(=O)C2CC2)cc1 | 4.54 | > 100 µM |  |
| CCOc1c2c(nc3ccc(Cl)cc13)CCC2 | 5.29 | 21.4 µM | > 40 µM |
| CCOC(=O)C1CCCN(c2ccc([N+](=O)[O-])c3nonc23)C1 (centres undefined) | 5.84 | 1.6 µM |  |
| Cc1ccccc1Nc1c(-c2ccccn2)nc2c(C)cccn12 | 4.69 | > 100 µM | 29 µM |
| COc1cccc(-c2cc(C(=O)Nc3nc4ccccc4s3)c3ccccc3n2)c1 | 5.09 | > 100 µM | > 40 µM |

| SMILES | pIC50 | IC90 | CC50 |
| --- | --- | --- | --- |
| Cc1[nH]n(-c2ccc(Br)cc2)c(=O)c1C=Nc1ccc(S(=O)(=O)Nc2nccs2)cc1 | 4.96 | > 100 µM | > 40 µM |
| CCC(=Nc1ccccc1O)C1=C(O)CC(c2ccccc2)CC1=O (centres undefined) | 5.82 | 1.72 µM | > 40 µM |
| Cc1nn(-c2ccccc2)nc1C(=O)c1c(C)[nH]n(-c2ccccc2)c1=O | 5.08 | 13.6 µM | 37 µM |
| FC(F)(F)c1cccc(Sc2nc(-c3ccccc3)nnc2C(F)(F)F)c1 | 5.14 | > 100 µM | > 40 µM |
| COc1ccc(NC2=NCC(Cc3ccc(Br)cc3)S2)cc1 (centres undefined) | 4.99 | 15.9 µM | > 40 µM |
| Cc1cc(C)cc(OCc2nnc(SCC(=O)OC3CCCCC3)o2)c1 | 5.74 | 11.8 µM |  |
| O=[N+]([O-])c1ccc(/C=N/n2c(CO)nc3ccccc32)s1 | 6.28 | 1.1 µM | > 40 µM |
| CCCCOC(=O)c1ccc(NC(=O)C(=O)NCc2ccccn2)cc1 |  | > 100 µM |  |
| COC(=O)c1ccnc(SCC(=O)c2ccccc2)c1 | 4.80 | 26.6 µM |  |
| Cn1nc(C(F)(F)F)c(-c2ccc(Br)cc2)c1NC(=O)c1cccnc1 |  | > 100 µM | > 40 µM |
| CCOC(=O)c1ccc(N2C(=O)c3n[nH]c(-c4ccco4)c3C2c2ccc([N+](=O)[O-])cc2)cc1 (centres undefined) | 5.04 | 17 µM | 28 µM |
| CSc1nc2nc(C)c(C/C=C/c3ccccc3)c(=O)n2[nH]1 | 4.94 | > 100 µM |  |
| O=C(CSc1nnc(-c2ccco2)o1)c1ccccc1Cl |  | > 100 µM |  |
| CCOC(=O)c1ccc(NC(=O)CSc2nnc(COc3ccccc3OC)n2C)cc1 |  | > 100 µM |  |
| Cc1cccc(-c2cc3nc(C)c(C)c(NCCCn4ccnc4)n3n2)c1 | 5.34 | 8.03 µM | > 40 µM |
| CCCCc1ccc(NC(=O)C(C)CC)cc1 (centres undefined) | 5.21 | > 100 µM |  |
| O=C(Nc1ccc(-n2nncc2-c2ccco2)cc1)c1cc2ccccc2oc1=O | 5.71 | 6.68 µM | 19.7 µM |
| COc1ccc(OCCCC(=O)Nc2cccc(SC)c2)cc1 |  | > 100 µM |  |
| Cc1cc(=O)oc2cc(Oc3ncccc3[N+](=O)[O-])ccc12 | 5.02 | > 100 µM |  |
| O=C(COc1ccc(Cl)cc1)Nc1nnc(-c2ccc3c(c2)CCCC3)o1 | 4.27 | > 100 µM | > 40 µM |
| CCOC(=O)c1ccc(NC(=O)Cn2cccc2)cc1 |  | > 100 µM |  |
| Cc1cc([N+](=O)[O-])ccc1NC(=O)c1ccc(NC(=O)C(C)C)cc1 | 4.91 | > 100 µM |  |

| SMILES | pIC50 | IC90 | CC50 |
| --- | --- | --- | --- |
| OCCN1CCN(CC(O)COc2ccc(C34CC5CC(CC(C5)C3)C4)cc2)CC1 (centres undefined) | 5.02 | 15.2 µM | 9.85 µM |
| c1ccc(CNc2nc(CN3CCOCC3)nc3scc(-c4ccccc4)c23)cc1 | 4.89 | 21.9 µM |  |
| CC(=O)c1ccc(OCC(=O)Nc2ccc3c(c2)CCC3)cc1 | 4.90 | > 100 µM | > 40 µM |
| Cc1ccccc1NC(=O)c1ccc(OCC(=O)Nc2ccccc2F)cc1 | 4.12 | > 100 µM |  |
| CCCCCc1cc(=O)oc2c(C(CCN(CC)CC)c3ccc(N(C)C)cc3)c(OC)cc(OC)c12 (centres undefined) | 5.39 | 5.28 µM | 14.9 µM |
| CC1Cc2ccccc2N1C(=O)COC(=O)c1ccc(Br)o1 (centres undefined) | 4.80 | > 100 µM |  |
| CCCCn1c(=O)c(C(=O)Nc2cnccn2)c(O)c2ccccc21 | 5.24 | 6.45 µM | 18.2 µM |
| CCN(CC)CCOC(=O)c1ccc(N/C=C(/C#N)c2nc(-c3ccc(OC)c(OC)c3)cs2)cc1 | 5.38 | 22.1 µM | > 40 µM |
| Brc1c(-c2ccc3c(c2)OCO3)nc2ncccn12 | 5.65 | 7.15 µM | > 40 µM |
| N#Cc1ccc(/C=C/C(=O)c2ccccc2)cc1 | 5.23 | 7.86 µM | > 40 µM |
| COc1ccc(N=Cc2cc(Cl)ccc2O)cc1Cl | 5.13 | > 100 µM |  |
| CCOC(=O)c1ccc(NC(=O)c2nc[nH]c2C(=O)N[C@H](C)c2ccccc2)cc1 | 5.20 | 24.6 µM | 26 µM |
| CCOC(=O)CSc1ncnc2c1cnn2-c1ccccc1 | 5.86 | 14.6 µM |  |
| Cc1cc(C)nc(-n2nc(C)cc2Nc2ccccc2)n1 | 5.49 | 13.6 µM | > 40 µM |
| CCn1ccnc1CN1CCCC(C(=O)c2ccc3cc(OC)ccc3c2)C1 (centres undefined) | 4.96 | 25.5 µM | > 40 µM |
| COc1ccc(-c2nnc(SCC(=O)Nc3cc(C)on3)o2)cc1 | 5.41 | 6.19 µM | > 40 µM |
| COC(=O)CSc1nnc(-c2ccc(NS(=O)(=O)c3ccccc3)cc2)o1 | 5.72 | 5.72 µM |  |
| O=C(c1nnsc1S(=O)c1ccc(Cl)cc1)N1CCOCC1 (centres undefined) | 5.05 | 10.8 µM | 14.4 µM |
| O=C(CCN1C(=O)C2CCCCC2C1=O)Nc1nc(-c2ccc(F)c(F)c2)cs1 (centres undefined) | 4.32 | > 100 µM |  |
| O=C(c1cc(COc2ccc(F)cc2Cl)on1)N1CCC(OCc2cccnc2)CC1 |  | > 100 µM | 8.01 µM |
| CCOC(=O)CSc1nnc(-c2ccc(NS(=O)(=O)c3ccc(C)cc3)cc2)o1 | 5.64 | 5.26 µM |  |
| CCOC(=O)c1cc(-c2csc(-c3ccc(C(F)(F)F)cc3)n2)on1 | > 6.71 | 3.33 µM |  |

| SMILES | pIC50 | IC90 | CC50 |
| --- | --- | --- | --- |
| Cc1ccc(Cc2cnc(NC(=O)C3CCCO3)s2)cc1 (centres undefined) |  | > 100 µM | > 40 µM |
| Cc1ccc(-c2csc3ncnc(Oc4ccc5c(C)cc(=O)oc5c4)c23)cc1 | > 6.71 | > 100 µM | > 40 µM |
| O=S1(=O)CCC(N=Cc2ccc(-c3ccc(Cl)cc3)o2)C1 (centres undefined) | 5.18 | > 100 µM |  |
| CCc1nc2sc3ccccc3c(=O)c2c(=O)n1Cc1ccc(OC)cc1 | 5.20 | 8.28 µM | > 40 µM |
| Cc1ccc(SC/C(O)=C(\C#N)c2nc3ccccc3n2C)cc1 |  |  | > 40 µM |
| CCc1ccccc1NC(=O)c1ccc([N+](=O)[O-])s1 |  | > 100 µM | > 40 µM |
| CCOC(=O)c1ccc(N2CN=C3SCC(=O)N3C2)cc1 | 4.92 | > 100 µM |  |
| N#Cc1ccc(C(=O)Nc2nnc(-c3ccco3)o2)cc1 | 5.10 | > 100 µM | > 40 µM |
| O=c1c2cc(Cl)ccc2oc2nc3n(c(=O)c12)CCCS3 | 6.10 | 8.71 µM |  |
| CCCOC(=O)c1ccc(NC(=O)CCC(=O)OCC)cc1 | > 6.71 | > 100 µM |  |
| CCCCc1ccc(NC(=O)c2cnccn2)cc1 | 4.28 | > 100 µM | > 40 µM |
| CCOC(=O)c1ccc(N/C=C2/CCCC(C)C2=O)cc1 (centres undefined) | 4.96 | > 100 µM |  |
| Cc1nc2ccc(NC(=O)C(F)(F)F)cc2o1 |  | > 100 µM |  |
| CCOc1ccc(NC(=O)CN2CCN(C3c4ccccc4-c4ccccc43)CC2)cc1 | 4.65 | > 100 µM | > 40 µM |
| CCOc1ccc(NC(=O)CSc2ccccc2N)cc1 |  | > 100 µM |  |
| COc1ccc(C2(O)CC3CCC(C2)N3c2cc(C)nc(-c3ccccc3)n2)cc1 (centres undefined) | 4.76 | 23.9 µM | > 40 µM |
| O=C(c1cnc(N2CCN(c3ccccn3)CC2)c2ccccc12)N1CCN(c2cccc(Cl)c2)CC1 | 5.06 | > 100 µM | > 40 µM |
| CCCNC(=O)CSc1nnc(-c2ccc(F)cc2)o1 | 5.23 | > 100 µM |  |
| C=CCn1c(O)c(C(C)=Nc2ccc(C(=O)OCC)cc2)c(=O)[nH]c1=O | 4.85 | > 100 µM |  |
